Reference: paper PMC7026418, “The kinase polypharmacology landscape of clinical PARP inhibitors” (Scientific Reports, 2020)
Like-named read-outs stand apart in the source and are kept apart here.

Tests used:
Assay in all cases: biochemical
Design in all cases: DiscoveRx KINOMEscan active site-directed competition binding; percent of control kinase bound to immobilised ligand
[1] = biological target: T1, ABL1(F317I)-nonphosphorylated (Homo sapiens, UniProt P00519, F317I)
T1 construct: nonphosphorylated
T1 sequence (P00519 whole entry F317I): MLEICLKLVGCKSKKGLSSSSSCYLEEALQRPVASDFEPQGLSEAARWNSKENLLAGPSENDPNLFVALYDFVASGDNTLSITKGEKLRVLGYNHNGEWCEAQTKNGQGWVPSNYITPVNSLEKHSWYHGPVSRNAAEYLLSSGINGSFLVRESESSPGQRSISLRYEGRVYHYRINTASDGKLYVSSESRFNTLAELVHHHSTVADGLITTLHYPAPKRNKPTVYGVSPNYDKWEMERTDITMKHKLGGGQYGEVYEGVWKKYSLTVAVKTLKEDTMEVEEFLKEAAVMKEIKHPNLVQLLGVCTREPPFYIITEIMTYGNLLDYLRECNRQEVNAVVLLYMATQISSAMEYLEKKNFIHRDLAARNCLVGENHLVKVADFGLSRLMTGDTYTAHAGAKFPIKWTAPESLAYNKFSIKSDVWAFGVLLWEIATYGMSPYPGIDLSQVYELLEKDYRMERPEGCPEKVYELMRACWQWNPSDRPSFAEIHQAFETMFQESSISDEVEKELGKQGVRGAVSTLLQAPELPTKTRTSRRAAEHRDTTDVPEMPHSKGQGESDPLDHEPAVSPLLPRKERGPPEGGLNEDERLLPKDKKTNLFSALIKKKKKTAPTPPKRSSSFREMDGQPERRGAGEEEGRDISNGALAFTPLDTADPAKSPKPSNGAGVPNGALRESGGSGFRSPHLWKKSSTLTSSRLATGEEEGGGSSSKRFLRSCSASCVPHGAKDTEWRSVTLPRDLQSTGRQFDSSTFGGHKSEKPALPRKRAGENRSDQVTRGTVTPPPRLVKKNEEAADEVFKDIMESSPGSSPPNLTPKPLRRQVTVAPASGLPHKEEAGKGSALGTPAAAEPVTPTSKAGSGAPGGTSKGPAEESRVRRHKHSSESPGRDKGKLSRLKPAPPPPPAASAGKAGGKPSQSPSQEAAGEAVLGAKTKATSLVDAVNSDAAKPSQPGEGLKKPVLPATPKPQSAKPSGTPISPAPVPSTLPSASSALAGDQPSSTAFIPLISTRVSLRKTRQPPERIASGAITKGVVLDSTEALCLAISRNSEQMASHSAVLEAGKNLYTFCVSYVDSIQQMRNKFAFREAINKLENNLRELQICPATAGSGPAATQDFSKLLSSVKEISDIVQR

CASK = biological target: T2, CASK (Homo sapiens, UniProt O14936)
T2 sequence (O14936 1-926): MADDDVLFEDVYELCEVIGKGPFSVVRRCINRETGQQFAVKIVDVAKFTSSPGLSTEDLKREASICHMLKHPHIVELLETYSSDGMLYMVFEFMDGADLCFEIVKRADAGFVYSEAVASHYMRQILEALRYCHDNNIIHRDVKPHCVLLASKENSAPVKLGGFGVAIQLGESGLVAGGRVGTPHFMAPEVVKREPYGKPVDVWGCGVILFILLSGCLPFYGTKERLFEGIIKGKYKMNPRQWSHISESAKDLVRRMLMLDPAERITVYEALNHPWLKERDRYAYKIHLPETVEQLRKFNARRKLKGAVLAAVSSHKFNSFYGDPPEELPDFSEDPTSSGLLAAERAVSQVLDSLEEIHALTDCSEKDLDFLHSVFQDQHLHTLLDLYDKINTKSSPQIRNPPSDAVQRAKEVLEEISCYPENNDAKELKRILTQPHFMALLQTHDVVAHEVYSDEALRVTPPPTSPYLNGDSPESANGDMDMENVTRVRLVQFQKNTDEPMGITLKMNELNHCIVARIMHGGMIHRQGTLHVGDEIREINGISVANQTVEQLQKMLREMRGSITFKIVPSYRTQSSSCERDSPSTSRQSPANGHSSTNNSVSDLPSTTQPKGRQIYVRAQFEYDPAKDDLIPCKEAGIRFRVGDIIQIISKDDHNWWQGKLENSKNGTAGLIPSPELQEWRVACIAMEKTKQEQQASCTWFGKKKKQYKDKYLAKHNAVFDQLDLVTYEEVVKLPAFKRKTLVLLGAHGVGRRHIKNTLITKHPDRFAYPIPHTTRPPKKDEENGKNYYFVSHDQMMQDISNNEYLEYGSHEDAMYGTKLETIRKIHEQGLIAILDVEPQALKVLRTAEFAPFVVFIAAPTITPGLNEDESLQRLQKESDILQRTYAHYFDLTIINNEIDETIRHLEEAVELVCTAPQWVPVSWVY

CDK4-cyclinD1 = biological target: T3, CDK4-cyclinD1 (Homo sapiens, UniProt P11802)
T3 construct: cyclinD1
T3 sequence (P11802 whole entry): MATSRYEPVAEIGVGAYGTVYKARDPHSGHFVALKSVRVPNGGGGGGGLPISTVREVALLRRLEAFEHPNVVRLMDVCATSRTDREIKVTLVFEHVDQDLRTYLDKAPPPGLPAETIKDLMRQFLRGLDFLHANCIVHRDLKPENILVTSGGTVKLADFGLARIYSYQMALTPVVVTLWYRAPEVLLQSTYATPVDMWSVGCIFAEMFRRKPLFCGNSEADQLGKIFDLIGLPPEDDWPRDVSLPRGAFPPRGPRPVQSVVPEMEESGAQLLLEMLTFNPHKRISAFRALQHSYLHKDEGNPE
T3 sequence (P24385 whole entry partner): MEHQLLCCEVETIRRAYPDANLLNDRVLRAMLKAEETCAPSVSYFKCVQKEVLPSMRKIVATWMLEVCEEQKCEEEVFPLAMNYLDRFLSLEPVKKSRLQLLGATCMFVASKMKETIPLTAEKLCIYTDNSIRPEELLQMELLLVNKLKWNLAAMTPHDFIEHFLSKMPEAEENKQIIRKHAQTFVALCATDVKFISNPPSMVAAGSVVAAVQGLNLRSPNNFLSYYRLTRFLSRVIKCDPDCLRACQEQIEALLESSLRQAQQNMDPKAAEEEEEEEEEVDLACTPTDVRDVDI

ERK4 = biological target: T4, ERK4 (Homo sapiens, UniProt P31152)
T4 construct: gene MAPK4
T4 sequence (P31152 whole entry): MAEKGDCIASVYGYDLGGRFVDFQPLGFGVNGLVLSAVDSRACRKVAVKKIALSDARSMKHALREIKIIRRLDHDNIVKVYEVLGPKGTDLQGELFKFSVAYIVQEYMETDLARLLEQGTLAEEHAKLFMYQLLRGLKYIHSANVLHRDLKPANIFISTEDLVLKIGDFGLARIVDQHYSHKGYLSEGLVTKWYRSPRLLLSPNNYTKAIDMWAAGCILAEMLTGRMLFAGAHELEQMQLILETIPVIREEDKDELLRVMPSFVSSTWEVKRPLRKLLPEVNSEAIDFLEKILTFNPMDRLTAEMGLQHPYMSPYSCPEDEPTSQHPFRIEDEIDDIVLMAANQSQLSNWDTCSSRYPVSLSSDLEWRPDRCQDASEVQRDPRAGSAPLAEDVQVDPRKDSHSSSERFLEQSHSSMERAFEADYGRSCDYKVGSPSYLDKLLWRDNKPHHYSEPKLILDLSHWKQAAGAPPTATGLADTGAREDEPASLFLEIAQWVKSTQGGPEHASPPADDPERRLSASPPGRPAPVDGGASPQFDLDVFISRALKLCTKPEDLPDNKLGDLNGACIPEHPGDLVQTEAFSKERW

NLK = biological target: T5, NLK (Homo sapiens, UniProt Q9UBE8)
T5 sequence (Q9UBE8 1-527): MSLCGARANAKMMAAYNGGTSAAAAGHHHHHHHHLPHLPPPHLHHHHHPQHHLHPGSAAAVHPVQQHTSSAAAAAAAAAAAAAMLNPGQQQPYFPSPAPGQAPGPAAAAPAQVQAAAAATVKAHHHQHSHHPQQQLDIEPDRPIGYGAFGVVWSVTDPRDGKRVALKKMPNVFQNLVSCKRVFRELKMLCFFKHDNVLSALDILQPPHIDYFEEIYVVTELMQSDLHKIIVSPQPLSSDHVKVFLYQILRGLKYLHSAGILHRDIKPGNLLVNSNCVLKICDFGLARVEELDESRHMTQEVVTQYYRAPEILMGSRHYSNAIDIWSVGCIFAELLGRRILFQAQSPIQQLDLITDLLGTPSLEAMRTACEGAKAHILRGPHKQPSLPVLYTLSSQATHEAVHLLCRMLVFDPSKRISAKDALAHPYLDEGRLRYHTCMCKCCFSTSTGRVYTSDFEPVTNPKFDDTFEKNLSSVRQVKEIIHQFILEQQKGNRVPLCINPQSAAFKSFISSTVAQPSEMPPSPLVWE

PIM2 = PIM2 (Homo sapiens, UniProt Q9P1W9)
Chain of PIM2 (Q9P1W9 whole entry): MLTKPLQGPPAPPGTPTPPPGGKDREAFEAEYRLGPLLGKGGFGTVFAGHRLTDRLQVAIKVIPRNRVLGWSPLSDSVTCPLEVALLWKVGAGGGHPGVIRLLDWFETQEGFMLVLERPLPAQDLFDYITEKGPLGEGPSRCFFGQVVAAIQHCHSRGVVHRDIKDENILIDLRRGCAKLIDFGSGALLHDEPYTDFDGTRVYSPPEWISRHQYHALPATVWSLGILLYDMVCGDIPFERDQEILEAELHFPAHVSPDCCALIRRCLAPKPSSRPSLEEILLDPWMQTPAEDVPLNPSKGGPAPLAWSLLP

PRKD1 = biological target: T6, PRKD1 (Homo sapiens, UniProt Q15139)
T6 sequence (Q15139 1-912): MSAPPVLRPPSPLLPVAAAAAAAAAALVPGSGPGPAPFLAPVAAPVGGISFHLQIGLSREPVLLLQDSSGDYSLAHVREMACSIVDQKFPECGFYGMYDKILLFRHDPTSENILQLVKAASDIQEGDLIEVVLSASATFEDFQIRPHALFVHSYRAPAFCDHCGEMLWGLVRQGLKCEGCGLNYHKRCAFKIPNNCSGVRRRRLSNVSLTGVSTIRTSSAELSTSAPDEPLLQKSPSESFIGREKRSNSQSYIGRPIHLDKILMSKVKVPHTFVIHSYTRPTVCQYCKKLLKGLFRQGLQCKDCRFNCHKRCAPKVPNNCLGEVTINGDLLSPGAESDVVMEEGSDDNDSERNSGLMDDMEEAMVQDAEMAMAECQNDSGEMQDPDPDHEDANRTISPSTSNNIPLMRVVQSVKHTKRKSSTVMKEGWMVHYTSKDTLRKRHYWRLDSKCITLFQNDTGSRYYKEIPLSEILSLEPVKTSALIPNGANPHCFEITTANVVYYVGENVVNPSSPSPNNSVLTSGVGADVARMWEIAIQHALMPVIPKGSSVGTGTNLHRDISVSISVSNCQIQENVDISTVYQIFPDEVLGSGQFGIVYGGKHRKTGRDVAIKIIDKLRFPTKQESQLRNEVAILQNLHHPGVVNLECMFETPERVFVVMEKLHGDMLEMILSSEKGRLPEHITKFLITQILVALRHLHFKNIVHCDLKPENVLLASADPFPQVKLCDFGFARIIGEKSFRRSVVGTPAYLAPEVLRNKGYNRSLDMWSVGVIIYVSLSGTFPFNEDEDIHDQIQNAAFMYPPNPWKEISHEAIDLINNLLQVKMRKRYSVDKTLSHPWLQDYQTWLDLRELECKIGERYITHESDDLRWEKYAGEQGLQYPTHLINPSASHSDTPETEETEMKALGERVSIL

[2] = read-out: Talazoparib (BMN 673) / %Ctrl @ 10000nM
[3] = read-out: Olaparib / %Ctrl @ 10000nM
[4] = read-out: Niraparib (MK-4827) / %Ctrl @ 10000nM
[5] = read-out: Rucaparib / %Ctrl @ 10000nM, binding competition, % of control

For `Cn1ncnc1[C@H]1c2n[nH]c(=O)c3cc(F)cc(c23)N[C@@H]1c1ccc(F)cc1` [Talazoparib], the percent of control binding at 10 µM [1, 2] was 96%, the percent of control binding at 10 µM (CASK; [2]) was 79% and the percent of control binding at 10 µM (CDK4-cyclinD1; [2]) was 70%. For the same compound, the percent of control binding at 10 µM (ERK4; [2]) was 100%, the percent of control binding at 10 µM (NLK; [2]) was 100% and the percent of control binding at 10 µM (PIM2; [2]) was 98%. The percent of control binding at 10 µM (PRKD1; [2]) was 100%.

With `O=C(c1cc(Cc2n[nH]c(=O)c3ccccc23)ccc1F)N1CCN(C(=O)C2CC2)CC1` [Olaparib] the percent of control binding at 10 µM [1, 3] was 66%, the percent of control binding at 10 µM (CASK; [3]) was 78% and the percent of control binding at 10 µM (CDK4-cyclinD1; [3]) was 80%. It also gave a percent of control binding at 10 µM (ERK4; [3]) of 100%, a percent of control binding at 10 µM (NLK; [3]) of 85% and a percent of control binding at 10 µM (PIM2; [3]) of 100%. The percent of control binding at 10 µM (PRKD1; [3]) was 89%.

In the case of `NC(=O)c1cccc2cn(-c3ccc([C@@H]4CCCNC4)cc3)nc12` [Niraparib], the percent of control binding at 10 µM [1, 4] is reported as 86%, the percent of control binding at 10 µM (CASK; [4]) is reported as 93% and the percent of control binding at 10 µM (CDK4-cyclinD1; [4]) is reported as 82%. For the same compound, the percent of control binding at 10 µM (ERK4; [4]) was 98%, the percent of control binding at 10 µM (NLK; [4]) was 100% and the percent of control binding at 10 µM (PIM2; [4]) was 13%. The percent of control binding at 10 µM (PRKD1; [4]) was 86%.

In the case of `CNCc1ccc(-c2[nH]c3cc(F)cc4c3c2CCNC4=O)cc1` [Rucaparib], the percent of control binding at 10 µM [1, 5] is reported as 71%, the percent of control binding at 10 µM (CASK; [5]) is reported as 83% and the percent of control binding at 10 µM (CDK4-cyclinD1; [5]) is reported as 25%. For the same compound, the percent of control binding at 10 µM (ERK4; [5]) was 97%, the percent of control binding at 10 µM (NLK; [5]) was 78% and the percent of control binding at 10 µM (PIM2; [5]) was 36%. For the same compound, the percent of control binding at 10 µM (PRKD1; [5]) was 67%.
